Data on four compounds can be found in the NIST ThermoML archive (doi:10.1016/j.jct.2007.09.007).

The conditions of the data set: 101.33 kPa, Liquid.

± gives the expanded uncertainty stated by the source.

As to `C1COCCO1` [1,4-dioxane], the mass density worked out at 1038.78 ± 0.24 kg/m3 (288.15 K), 1033.16 ± 0.23 kg/m3 (293.15 K), 1027.51 ± 0.22 kg/m3 (298.15 K) and 1021.84 ± 0.21 kg/m3 (303.15 K).

As to `CC#N` [acetonitrile], the mass density (288.15 K) came to 787.38 ± 0.23 kg/m3, the mass density (293.15 K) turned out to be 782.01 ± 0.24 kg/m3, the mass density (298.15 K) is recorded as 776.62 ± 0.24 kg/m3 and the mass density (303.15 K) was 771.19 ± 0.25 kg/m3.

For `CC(C)OC(C)C` [diisopropyl ether], the mass density by setting is: (288.15 K) 728.82 ± 0.94 kg/m3; (293.15 K) 723.67 ± 0.95 kg/m3; (298.15 K) 718.46 ± 0.96 kg/m3; (303.15 K) 713.21 ± 0.97 kg/m3.

Consider `C1CCOC1` [tetrahydrofuran], for which the mass density is 892.86 ± 0.33 kg/m3 (288.15 K), 887.52 ± 0.34 kg/m3 (293.15 K), 882.04 ± 0.35 kg/m3 (298.15 K) and 876.54 ± 0.36 kg/m3 (303.15 K).
